Values of other authors as cited in US8420367B2, “Polynucleotides encoding mutant hydrolase proteins with enhanced kinetics and functional expression” (Promega Corporation, priority 2006, dated 2013).

Molecular target: tetracysteine domain in a recombinant protein

For O=C1OC2(c3ccccc31)c1ccc(O)c([As]3SCCS3)c1Oc1c2ccc(O)c1[As]1SCCS1 [FLASH, 4′,5′-bis(1,3,2-dithioarsolan-2-yl)fluorescein], the dissociation constant is listed as “nanomolar or lower”.
